The record followed here is PubChem BioAssay (NCI).

Structures are written as SMILES.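 Tested at 5 concentrations; 48 h exposure; 96-well plates; endpoints linearly interpolated, else capped at highest concentration. The concentration for 50% growth inhibition is given as GI50. The concentration for full growth arrest is given as TGI.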

One test concerns MALME-3M melanoma. Nature of the test: inhibition of tumour cell growth, NCI panel, 48 h.
As for `CC(C)(C)OC(=O)N1CCN(CCn2cc(C(F)(F)F)c3c(Cl)ncnc32)CC1`, the GI50 was 13.3 µM and the TGI turned out to be 27.7 µM.

For the molecule `FC(F)(F)c1ccc(Nc2nc(-c3c(C(F)(F)F)nc4ccccn34)cs2)cc1`, the GI50 is 0.064 µM and the TGI came to 4.63 µM.

With `CN(C)CCN1C(=O)c2ccccc2N(C)c2ccccc21`, the GI50 was above 100 µM and the TGI is above 100 µM.

Turning to `O=[N+]([O-])O.[Cu+2].[NH-]CC[NH-].[NH-]CC[NH-]`, the GI50 is above 10 µM and the TGI is above 10 µM.

Consider `Cc1nn2c(/C=C3\C(=O)Nc4ccc(Cl)cc43)c(C)nc2s1`, for which the GI50 is above 100 µM and the TGI is above 100 µM.

Consider `COc1ccc(C(=O)OC2C(OC3C(O)COC(O[C@H]4C[C@H]5[C@@H]6CC=C7C[C@@H](O)CC[C@]7(C)[C@H]6CC[C@]5(C)[C@H]4[C@H](C)C(=O)CCC(C)C)C3OC(N)=O)OCC(O)C2O)cc1` (stereo not given in full), for which the GI50 was 0.182 µM and the TGI came out at 1.55 µM.

As to `COC(=O)c1nc(-c2ccccc2)oc1S(=O)(=O)Cc1ccccc1`, the GI50 is 1.73 µM and the TGI was 3.44 µM.

On to `CN(O)c1nc(N(C)O)nc(N2CCOCC2)n1`, for which the GI50 was 12.3 µM and the TGI was above 100 µM.

Take `COc1ccc(-c2c[nH]c(C(=O)O)c2-c2cc(OC)c(OC)c(OC)c2)cc1`: the GI50 was 4.37 µM and the TGI was above 100 µM.

As to `C#Cc1c(F)ccc2cc(O)cc(-c3ncc4c(N5CC6CCC(C5)N6)nc(OC[C@@]56CCCN5C[C@H](F)C6)nc4c3F)c12`, the GI50 was 15.5 µM and the TGI is 29.3 µM.

As to `C=C(C)C(=O)Nc1ccc(NC(C)C)cc1`, the GI50 was above 100 µM and the TGI is above 100 µM.

A further test deals with UACC-62 melanoma. Nature of the test: inhibition of tumour cell growth, NCI panel, 48 h.
In the case of `CC(C)(C)OC(=O)N1CCN(CCn2cc(C(F)(F)F)c3c(Cl)ncnc32)CC1`, the GI50 is 2.25 µM and the TGI came to 5.69 µM.

As to `FC(F)(F)c1ccc(Nc2nc(-c3c(C(F)(F)F)nc4ccccn34)cs2)cc1`, the GI50 was 0.0385 µM and the TGI stood at 3.43 µM.

Turning to `CN(C)CCN1C(=O)c2ccccc2N(C)c2ccccc21`, the GI50 is above 100 µM and the TGI is above 100 µM.

Consider `O=[N+]([O-])O.[Cu+2].[NH-]CC[NH-].[NH-]CC[NH-]`, for which the GI50 is above 10 µM and the TGI is above 10 µM.

Turning to `Cc1nn2c(/C=C3\C(=O)Nc4ccc(Cl)cc43)c(C)nc2s1`, the GI50 is 82.1 µM and the TGI is above 100 µM.

With `COc1ccc(C(=O)OC2C(OC3C(O)COC(O[C@H]4C[C@H]5[C@@H]6CC=C7C[C@@H](O)CC[C@]7(C)[C@H]6CC[C@]5(C)[C@H]4[C@H](C)C(=O)CCC(C)C)C3OC(N)=O)OCC(O)C2O)cc1` (stereo not given in full), the GI50 was 0.00978 µM and the TGI is 0.04 µM.

Turning to `COC(=O)c1nc(-c2ccccc2)oc1S(=O)(=O)Cc1ccccc1`, the GI50 is 6.52 µM and the TGI amounted to 20 µM.

As to `CN(O)c1nc(N(C)O)nc(N2CCOCC2)n1`, the GI50 is 4.12 µM and the TGI is above 100 µM.

As to `COc1ccc(-c2c[nH]c(C(=O)O)c2-c2cc(OC)c(OC)c(OC)c2)cc1`, the GI50 was 4.13 µM and the TGI was above 100 µM.

As to `C#Cc1c(F)ccc2cc(O)cc(-c3ncc4c(N5CC6CCC(C5)N6)nc(OC[C@@]56CCCN5C[C@H](F)C6)nc4c3F)c12`, the GI50 was 16.6 µM and the TGI came to 30.5 µM.

As for `C=C(C)C(=O)Nc1ccc(NC(C)C)cc1`, the GI50 is above 100 µM and the TGI is above 100 µM.

Another test deals with K-562 leukemia. Description: inhibition of tumour cell growth, NCI panel, 48 h.
In the case of `CC(C)(C)OC(=O)N1CCN(CCn2cc(C(F)(F)F)c3c(Cl)ncnc32)CC1`, the GI50 is 3.22 µM and the TGI amounted to 14.1 µM.

As for `FC(F)(F)c1ccc(Nc2nc(-c3c(C(F)(F)F)nc4ccccn34)cs2)cc1`, the GI50 is 0.0396 µM and the TGI was 8.18 µM.

For the molecule `CN(C)CCN1C(=O)c2ccccc2N(C)c2ccccc21`, the GI50 is above 100 µM and the TGI is above 100 µM.

`O=[N+]([O-])O.[Cu+2].[NH-]CC[NH-].[NH-]CC[NH-]`: the GI50 was above 10 µM and the TGI was above 10 µM.

Regarding `Cc1nn2c(/C=C3\C(=O)Nc4ccc(Cl)cc43)c(C)nc2s1`, the GI50 was 5.43 µM and the TGI is above 100 µM.

With `COc1ccc(C(=O)OC2C(OC3C(O)COC(O[C@H]4C[C@H]5[C@@H]6CC=C7C[C@@H](O)CC[C@]7(C)[C@H]6CC[C@]5(C)[C@H]4[C@H](C)C(=O)CCC(C)C)C3OC(N)=O)OCC(O)C2O)cc1` (stereo not given in full), the GI50 was 0.00924 µM and the TGI came out at 0.3 µM.

In the case of `COC(=O)c1nc(-c2ccccc2)oc1S(=O)(=O)Cc1ccccc1`, the GI50 is 2.07 µM and the TGI turned out to be 5.29 µM.

In the case of `CN(O)c1nc(N(C)O)nc(N2CCOCC2)n1`, the GI50 was above 100 µM and the TGI is above 100 µM.

With `COc1ccc(-c2c[nH]c(C(=O)O)c2-c2cc(OC)c(OC)c(OC)c2)cc1`, the GI50 is 3.08 µM and the TGI was above 100 µM.

Regarding `C#Cc1c(F)ccc2cc(O)cc(-c3ncc4c(N5CC6CCC(C5)N6)nc(OC[C@@]56CCCN5C[C@H](F)C6)nc4c3F)c12`, the GI50 was 8.12 µM and the TGI is above 65.5 µM.

On to `C=C(C)C(=O)Nc1ccc(NC(C)C)cc1`, for which the GI50 was above 100 µM and the TGI was above 100 µM.

The subject of the next test is SR leukemia. Description: inhibition of tumour cell growth, NCI panel, 48 h.
In the case of `CC(C)(C)OC(=O)N1CCN(CCn2cc(C(F)(F)F)c3c(Cl)ncnc32)CC1`, the GI50 is 2.94 µM and the TGI is above 100 µM.

As to `FC(F)(F)c1ccc(Nc2nc(-c3c(C(F)(F)F)nc4ccccn34)cs2)cc1`, the GI50 is 0.0402 µM and the TGI is above 39.4 µM.

For the molecule `CN(C)CCN1C(=O)c2ccccc2N(C)c2ccccc21`, the GI50 is above 100 µM and the TGI is above 100 µM.

Consider `O=[N+]([O-])O.[Cu+2].[NH-]CC[NH-].[NH-]CC[NH-]`, for which the GI50 is above 10 µM and the TGI was above 10 µM.

On to `Cc1nn2c(/C=C3\C(=O)Nc4ccc(Cl)cc43)c(C)nc2s1`, for which the GI50 was 4.69 µM and the TGI came to 64.4 µM.

With `COc1ccc(C(=O)OC2C(OC3C(O)COC(O[C@H]4C[C@H]5[C@@H]6CC=C7C[C@@H](O)CC[C@]7(C)[C@H]6CC[C@]5(C)[C@H]4[C@H](C)C(=O)CCC(C)C)C3OC(N)=O)OCC(O)C2O)cc1` (stereo not given in full), the GI50 was 0.00567 µM and the TGI worked out at 0.493 µM.

On to `COC(=O)c1nc(-c2ccccc2)oc1S(=O)(=O)Cc1ccccc1`, for which the GI50 was 3.03 µM and the TGI came to 16.5 µM.

Regarding `CN(O)c1nc(N(C)O)nc(N2CCOCC2)n1`, the GI50 was 4.01 µM and the TGI is above 100 µM.

With `COc1ccc(-c2c[nH]c(C(=O)O)c2-c2cc(OC)c(OC)c(OC)c2)cc1`, the GI50 is 2.92 µM and the TGI is above 100 µM.

Turning to `C#Cc1c(F)ccc2cc(O)cc(-c3ncc4c(N5CC6CCC(C5)N6)nc(OC[C@@]56CCCN5C[C@H](F)C6)nc4c3F)c12`, the GI50 is 6.53 µM and the TGI is above 100 µM.

`C=C(C)C(=O)Nc1ccc(NC(C)C)cc1`: the GI50 is above 100 µM and the TGI is above 100 µM.

The subject of a further test is OVCAR-4 ovarian. Nature of the test: inhibition of tumour cell growth, NCI panel, 48 h.
With `CC(C)(C)OC(=O)N1CCN(CCn2cc(C(F)(F)F)c3c(Cl)ncnc32)CC1`, the GI50 was 13.2 µM and the TGI came to 26.7 µM.

Regarding `FC(F)(F)c1ccc(Nc2nc(-c3c(C(F)(F)F)nc4ccccn34)cs2)cc1`, the GI50 was 1.22 µM and the TGI worked out at 15.6 µM.

Consider `CN(C)CCN1C(=O)c2ccccc2N(C)c2ccccc21`, for which the GI50 was above 100 µM and the TGI was above 100 µM.

Regarding `O=[N+]([O-])O.[Cu+2].[NH-]CC[NH-].[NH-]CC[NH-]`, the GI50 was above 10 µM and the TGI is above 10 µM.

For `Cc1nn2c(/C=C3\C(=O)Nc4ccc(Cl)cc43)c(C)nc2s1`, the GI50 was 83 µM and the TGI is above 100 µM.

In the case of `COc1ccc(C(=O)OC2C(OC3C(O)COC(O[C@H]4C[C@H]5[C@@H]6CC=C7C[C@@H](O)CC[C@]7(C)[C@H]6CC[C@]5(C)[C@H]4[C@H](C)C(=O)CCC(C)C)C3OC(N)=O)OCC(O)C2O)cc1` (stereo not given in full), the GI50 was 0.475 µM and the TGI amounted to 5.26 µM.

Take `COC(=O)c1nc(-c2ccccc2)oc1S(=O)(=O)Cc1ccccc1`: the GI50 is 1.82 µM and the TGI is 3.4 µM.

Consider `CN(O)c1nc(N(C)O)nc(N2CCOCC2)n1`, for which the GI50 is 2.02 µM and the TGI is above 100 µM.

On to `COc1ccc(-c2c[nH]c(C(=O)O)c2-c2cc(OC)c(OC)c(OC)c2)cc1`, for which the GI50 was 88.8 µM and the TGI is above 100 µM.

As to `C#Cc1c(F)ccc2cc(O)cc(-c3ncc4c(N5CC6CCC(C5)N6)nc(OC[C@@]56CCCN5C[C@H](F)C6)nc4c3F)c12`, the GI50 was 16.8 µM and the TGI was found to be 37.1 µM.

`C=C(C)C(=O)Nc1ccc(NC(C)C)cc1`: the GI50 is above 100 µM and the TGI was above 100 µM.
